The results in this text go back to patent US7906128B2, “Use of neuronal sodium channel antagonists for the control of ectoparasites in homeothermic animals” (priority 2003, dated 2011).

One assay deals with adult fleas. The experiment in a line: Efficacy against adult fleas on beagles, full body spray. It is filed as in vivo. The settings on record: full body spray 0.40% (wt/vol), Compound A 20 mg/kg, Standard 14.5 mg/kg body wt. On the procedure:
In this evaluation twelve beagles are each infested with 100 unfed adult fleas. Each dog is assessed for its ability to retain fleas by a comb count taken 24 hours post infestation. The dogs are blocked by these flea counts and randomly assigned to one of four treatment groups. Test compounds are applied as a full body spray of a 0.40% (wt/vol) solution of test compound in a mixture of 1% Miglyol in N-methyl-2-pyrrolidinone. One day prior to treatment each dog is infested with 100 fleas and one day post treatment the dogs are comb counted to check for knockdown efficacy. The dogs were subsequently re-infested with fleas and comb counted 24 hours later at weekly intervals.

In assay [1] the test system is newly emerged larvae of blowfly, Lucilia sericata. The experiment in a line: Efficacy against blowfly larvae on treated filter paper discs. The settings on record: for LC50: Lucilia sericata. On the procedure: In this evaluation, filter paper discs are treated with an acetone solution of test compound and allowed to dry.

The structures appear in SMILES notation. Converted amounts (≈) assume the structure as drawn.

Broadly, the LC50 is the concentration lethal to half of the exposed cells or organisms. For the compound `N#Cc1nn(-c2c(Cl)cc(C(F)(F)F)cc2Cl)c(N)c1[S+]([O-])C(F)(F)F` (centres unmarked) [Standard, fipronil], the “% Efficacy relative to nontreated control” value with adult fleas (1 DAT), with adult fleas (7 DAT), in the assay with adult fleas (14 DAT), in the assay on adult fleas (21 DAT), in the assay with adult fleas (28 DAT) and in the assay on adult fleas (35 DAT) was 100% in each case. The “% Efficacy relative to nontreated control” value in the assay with adult fleas (42 DAT) was 100%; with adult fleas (49 DAT) it was 100%; in the assay on adult fleas (56 DAT), 100%; in the assay with adult fleas (62 DAT), 99.5%. In addition, the LC50 stood at 0.1 µg/mL (≈ 0.229 µM) in assay [1] (24 h) and 0.07 µg/mL (≈ 0.16 µM) in assay [1] (48 h). The LC99 in assay [1] (mortality at 24 h) was 0.40 µg/mL; in assay [1] (mortality at 48 h) it was 0.30 µg/mL.
